Laboratory results: US5990113A, “Monohydrates of aminobenzenesulfonic acid derivatives and method for preparing thereof” (priority 1995, dated 1999)
Entries after “also recorded” stand apart in the source; their conditions may differ. Like-named read-outs stand apart in the source and are kept apart here.

Assays:
[1] = rat, in vivo
Method: Using these values of AUC(0-.infin.) and the doses applied, the bioavailability was calculated according to the following Equation 1. [formula]

[2] = Serum concentration (2): serum radioactivity after oral administration at several doses; conditions: male rats, Mean ± S.D (n = 5)
[3] = Hygroscopic property: weight change on storage in a desiccator; type: physicochemical; conditions: 20° C.
Method: Each of the samples of the monohydrate of the present invention was put in a desiccator adjusted at a relative humidity of 57% or 98%, and then stored at 20° C. for 16 days. Weight changes during the period of time were measured. As controls, the anhydrous crystals obtained in the above process (a) in Example 1 were also stored in a desiccator adjusted at a relative humidity of 57% or 98%, and weight changes were measured. The results are shown in Table 2 [in the table, each of the values (%) represents a weight increase]. […] On the other hand, as for the anhydrous crystal, the weight increase of about 7% was observed, which corresponded to about 1 mole of the water of crystal.

[4] = Thermal analysis (TG-DTA); type: physicochemical; conditions: dry nitrogen, 5° C./min
Method: The anhydrous crystal described in Example 1 of the Japanese Patent Unexamined Publication (KOKAI) No.(Hei)3-7263/1991 and the monohydrate of the present invention were subjected to thermal analysis by a thermal analyzer (RIGAKU TAS-200) under dry nitrogen atmosphere using each of 10 mg of samples. The measurements were carried out in the temperature range of from 50 to 400° C. applying the temperature raising rate of 5° C./min. As the anhydrous crystals, those obtained in the above process (a) was used.

[5] = rat, in vivo; remark: listed apart in the source
[6] = Weight and appearance on further drying; type: physicochemical; conditions: further 27 hours, 50° C., 90 mmHg
Method: The anhydrous crystal of 5-Methyl-2-(1-piperazinyl) benzenesulfonic acid (10.00 g) and distilled water (30 ml) were added in a 100 ml round-bottomed flask and the mixture was stirred at 5° C. for 2 hours. The crystals were collected from the suspension by suction filtration and the crystals remained in the round-bottomed flask were recovered by washing with distilled water (3 ml). The crystals were combined and dried at 50° C. and 90 mmHg for 3 hours to give 5-methyl-2-(1-piperazinyl)benzenesulfonic acid monohydrate as white crystals (10.36 g, yield: 96.8%). After drying was further continued for 27 hours under the same conditions, the weight and appearance of the monohydrate were not changed. Water content measured by a Karl Fischer water content meter was 6.96%, which further verified that the product was the monohydrate (calculated content: 6.56%).
The anhydrous crystal of 5-Methyl-2-(1-piperazinyl) benzenesulfonic acid (10.00 g) and distilled water (75 ml) were charged in a 200 ml round-bottomed flask and the crystals were thoroughly dissolved by heating under reflux with stirring. The solution was then cooled to 5° C. with stirring and stirring was further continued for 2 hours at the same temperature. […] Water content measured by a Karl Fischer water content meter was 6.75%, which further verified that the product was the monohydrate. […]

[7] = Stability and release of water of crystal of the monohydrate; type: physicochemical; conditions: for stability (in words): long period / room temperature / once formed, monohydrate
cardiac muscle cells = conditions: cited from earlier work

Cc1ccc(N2CCNCC2)c(S(=O)(=O)O)c1 [labeled compound, labeled 2-(1-piperazinyl)-5-methylbenzenesulfonic acid monohydrate]
AUC(0-.infin.) ([1]; iv, 0.3 mg/kg): 816.28 ng eq·h/ml | AUC(0-.infin.) ([1]; po, 1 mg/kg): 1039.86 ng eq·h/ml | AUC ([2]; oral 0.1 mg/kg): 0.0641 ± 0.0123 µg·h/mL | C max ([2]; oral 0.1 mg/kg): 0.0162 ± 0.0026 µg/mL | T max ([2]; oral 0.1 mg/kg): 2.2 ± 0.5 h | t 1/2 ([2]; oral 0.1 mg/kg): 1.77 ± 0.34 h | AUC ([2]; oral 0.3 mg/kg): 0.2705 ± 0.0884 µg·h/mL | C max ([2]; oral 0.3 mg/kg): 0.069 ± 0.0178 µg/mL | T max ([2]; oral 0.3 mg/kg): 2.2 ± 0.5 h | t 1/2 ([2]; oral 0.3 mg/kg): 1.33 ± 0.09 h | AUC ([2]; oral 1 mg/kg): 0.5744 ± 0.1132 µg·h/mL | C max ([2]; oral 1 mg/kg): 0.1716 ± 0.0311 µg/mL | T max ([2]; oral 1 mg/kg): 1.8 ± 0.5 h | t 1/2 ([2]; oral 1 mg/kg): 1.64 ± 0.17 h | AUC ([2]; oral 3 mg/kg): 1.7692 ± 0.4984 µg·h/mL | C max ([2]; oral 3 mg/kg): 0.5015 ± 0.1338 µg/mL | T max ([2]; oral 3 mg/kg): 2.0 ± 0.0 h | t 1/2 ([2]; oral 3 mg/kg): 1.30 ± 0.08 h

Cc1ccc(N2CCNCC2)c(S(=O)(=O)O)c1.O [Monohydrate, 5-methyl-2-(1-piperazinyl)benzenesulfonic acid monohydrate]
weight increase, 0 day ([3]; 57% RH): 0.00% | weight increase, 1 day ([3]; 57% RH): 0.11% | weight increase, 3 days ([3]; 57% RH): 0.20% | weight increase, 16 days ([3]; 57% RH): 0.21% | weight change (in words) ([3]; 57% and 98% RH, 16 days): No substantial weight change | weight increase, 0 day ([3]; 98% RH): 0.00% | weight increase, 1 day ([3]; 98% RH): 0.28% | weight increase, 3 days ([3]; 98% RH): 0.40% | weight increase, 16 days ([3]; 98% RH): 0.39% | temperature from which weight loss and thermal absorption peak due to release of the water of crystal were observed [4]: around 60 °C | weight loss due to release of the water of crystal ([4]; 50 to 400° C.): 6.57% | serum concentration versus dose (in words) [5]: linear direct proportion to the dose of administration | bioavailability ([1]; po, 1 mg/kg): 38% | weight and appearance after further drying [6]: not changed | heating temperature at which water of crystal is gradually released ([7]; ambient or reduced pressure): ≥ 60 °C | stability (in words) ([7]; listed as monohydrate of 2-(1-piperazinyl)-5-methylbenzenesulfonic acid): stable at room temperature for a long period of time | stability (in words) [7]: stable and free from weight variation by hygroscopicity; also recorded: stable for a long period of time

Cc1ccc(N2CCNCC2)c(S(=O)(=O)O)c1 [Compound 2, 2-(1-piperazinyl)-5-methylbenzenesulfonic acid]
inhibition of the inflow of calcium ions into cardiac muscle cells (in words) (cardiac muscle cells): remarkably inhibits

Cc1ccc(N2CCNCC2)c(S(=O)(=O)O)c1 [Anhydrous crystal, 2-(1-piperazinyl)-5-methylbenzenesulfonic acid, reference compound]
weight increase, 0 day ([3]; 57% RH): 0.00% | weight increase, 1 day ([3]; 57% RH): 6.99% | weight increase, 3 days ([3]; 57% RH): 7.08% | weight increase, 16 days ([3]; 57% RH): 6.89% | weight increase ([3]; 57% and 98% RH, 16 days, about 1 mole of water of crystal): about 7% | weight increase, 0 day ([3]; 98% RH): 0.00% | weight increase, 1 day ([3]; 98% RH): 7.35% | weight increase, 3 days ([3]; 98% RH): 7.36% | weight increase, 16 days ([3]; 98% RH): 7.12% | weight loss or thermal absorption peak due to release of the water of crystal (in words) ([4]; below 100° C.): no weight loss or no thermal absorption peak | bioavailability, maximum value of fluctuation ([1]; po, 0.94 mg/kg): 43.72% | bioavailability, minimum value of fluctuation ([1]; po, 0.94 mg/kg): 33.03%
